# Experimental data from patent publication US20250025454A1 (priority 2021, published 2025).
# Where “and” joins values, the source holds several entries; their conditions need not be identical. Identical values can stand only once. Entries after “also recorded” stand apart in the source; their conditions may differ. Like-named read-outs stand apart in the source and are kept apart here.
# How the values were obtained:
# [1] = Pharmacokinetics (plasma, lung at 24 h) after single oral dosing in male Sprague-Dawley rats; conditions: for AUC∞ / t1/2 / Cmax / AUC(0-t) / AUC(0-inf) / Tmax: male SD rat plasma; for AUC(0-t): AUClast
# [2] = male, Sprague-Dawley, rat, in vivo
# [3] = cited from earlier work
# [4] = female, 129S1, mouse, in vivo, po
# [5] = test system: SARS-CoV-2; conditions: 35 compounds tested
# [6] = in vivo; cited from earlier work
# [7] = in vivo; conditions: female, 129S1, mouse; for Tmax: range
# [8] = Scripps ReFrame database; cited from earlier work
# [9] = test system: SARS-CoV-2; conditions: Scripps ReFrame database; cited from earlier work
# [10] = single oral 250 mg/kg (Group 1), individual rats 450, 451, 452, listed as MDL-001, 250 mg/kg
# [11] = male, Sprague-Dawley, rat, in vivo, po, 250 mg/kg, single oral 250 mg/kg (Group 1), mean
# [12] = male, Sprague-Dawley, rat, in vivo, po, 500 mg/kg, single oral 500 mg/kg (Group 2), individual rats 453, 454, 455
# [13] = male, Sprague-Dawley, rat, in vivo, po, 500 mg/kg, single oral 500 mg/kg (Group 2), mean
# [14] = male, Sprague-Dawley, rat, in vivo, po, 750 mg/kg, single oral 750 mg/kg (Group 3), individual rats 456, 457, 458
# [15] = male, Sprague-Dawley, rat, in vivo, po, 750 mg/kg, single oral 750 mg/kg (Group 3), mean
# [16] = male, Sprague-Dawley, rat, in vivo, po, 1000 mg/kg, single oral 1000 mg/kg (Group 4), one outlier excluded, mean
smiles,measurement,setting,value
"Cc1c(-c2ccc(O)cc2)n(Cc2ccc(OCCN3CCCCC3)cc2)c2ccc(O)cc12 [Pipendoxifene, 2-(4-hydroxyphenyl)-3-methyl-1-[[4-(2-piperidin-1-ylethoxy)phenyl]methyl]indol-5-ol]",Lung C24 h over SARS-CoV-2 IC50,"[1]; 'higher dose', sentence in the rat section",5.4 fold
same,AUC∞,[1]; [10],4132 ng·h/mL and 5119 ng·h/mL and 2549 ng·h/mL
same,t1/2,[1]; [10],3.83 h and 8.95 h and 5.42 h
same,t1/2,"[1]; single oral 250 mg/kg (Group 1), mean, listed as MDL-001, 250 mg/kg",6.06 h
same,Cmax,"[1]; single oral 1000 mg/kg (Group 4), one outlier excluded, individual rats 459, 460, 461, listed as MDL-001, 1000 mg/kg",501 ng/mL
same,AUC∞,"[1]; single oral 1000 mg/kg (Group 4), one outlier excluded, individual rats 459, 460, listed as MDL-001, 1000 mg/kg",7888 ng·h/mL
same,adverse reactions / tolerability,"[1]; male SD rat, single PO dose 250-1000 mg/kg, listed as MDL-001",well tolerated with no adverse clinical signs; also recorded: No adverse reactions were observed
same,Kp at 24 h,"[1]; male, Sprague-Dawley, rat, in vivo, Lung/Plasma C24 h ratios, range, Day 1, across the dose range",97 to 122
same,AUC(0-t),"[1]; male, Sprague-Dawley, rat, in vivo, po, 250 mg/kg, single oral 250 mg/kg (Group 1), individual rats 450, 451, 452",4040 ng·h/mL
same,AUC(0-t),[1]; [11],3520 ± 980 ng·h/mL
same,AUC(0-inf),[1]; [11],3930 ng·h/mL
same,Cmax,"[1]; male, Sprague-Dawley, rat, in vivo, po, 250 mg/kg, Cmax, single oral 250 mg/kg (Group 1), individual rats 450, 451, 452",334 ng/mL
same,Cmax,"[1]; male, Sprague-Dawley, rat, in vivo, po, 250 mg/kg, Cmax, single oral 250 mg/kg (Group 1), mean",311 ± 42 ng/mL
same,half-life,"[1]; male, Sprague-Dawley, rat, in vivo, po, 250 mg/kg, t1/2, male SD rat plasma, single oral 250 mg/kg (Group 1), mean",6.06 ± 2.62 h
same,Tmax,[1]; [11],5.33 ± 1.15 h
same,AUC(0-t),[1]; [12],5730 ng·h/mL
same,AUC(0-inf),[1]; [12],6410 ng·h/mL
same,AUC(0-inf),[1]; [13],5850 ng·h/mL
same,half-life,"[1]; male, Sprague-Dawley, rat, in vivo, po, 500 mg/kg, t1/2, male SD rat plasma, single oral 500 mg/kg (Group 2), individual rats 453, 454, 455",6.08 h
same,half-life,"[1]; male, Sprague-Dawley, rat, in vivo, po, 500 mg/kg, t1/2, male SD rat plasma, single oral 500 mg/kg (Group 2), mean",5.2 ± 1.34 h
same,Tmax,[1]; [12],8 h
same,Tmax,[1]; [13],6.67 ± 1.15 h
same,AUC(0-t),[1]; [14],7530 ng·h/mL
same,AUC(0-inf),[1]; [14],7920 ng·h/mL
same,AUC(0-inf),[1]; [15],5520 ng·h/mL
same,Cmax,"[1]; male, Sprague-Dawley, rat, in vivo, po, 750 mg/kg, Cmax, single oral 750 mg/kg (Group 3), mean",415 ± 72 ng/mL
same,half-life,"[1]; male, Sprague-Dawley, rat, in vivo, po, 750 mg/kg, t1/2, male SD rat plasma, single oral 750 mg/kg (Group 3), individual rats 456, 457, 458",4.77 h
same,Tmax,[1]; [14],8 h
same,Tmax,[1]; [15],6.67 ± 1.15 h
same,concentration at 24 h,"[1]; male, Sprague-Dawley, rat, in vivo, po, 1000 mg/kg",13400 ng/g
same,AUC(0-t),"[1]; male, Sprague-Dawley, rat, in vivo, po, 1000 mg/kg, single oral 1000 mg/kg (Group 4), all data included, mean",6760 ± 930 ng·h/mL
same,AUC(0-t),"[1]; male, Sprague-Dawley, rat, in vivo, po, 1000 mg/kg, single oral 1000 mg/kg (Group 4), one outlier excluded, individual rats 459, 460, 461",3980 ng·h/mL
same,AUC(0-t),[1]; [16],5710 ± 1730 ng·h/mL
same,AUC(0-inf),[1]; [16],6880 ng·h/mL
same,half-life,"[1]; male, Sprague-Dawley, rat, in vivo, po, 1000 mg/kg, t1/2, male SD rat plasma, single oral 1000 mg/kg (Group 4), all data included, individual rats 459, 460, 461",4.3 h
same,half-life,"[1]; male, Sprague-Dawley, rat, in vivo, po, 1000 mg/kg, t1/2, male SD rat plasma, single oral 1000 mg/kg (Group 4), all data included, mean",4.88 ± 0.5 h
same,half-life,"[1]; male, Sprague-Dawley, rat, in vivo, po, 1000 mg/kg, t1/2, male SD rat plasma, single oral 1000 mg/kg (Group 4), one outlier excluded, individual rats 459, 460",4.3 h
same,half-life,"[1]; male, Sprague-Dawley, rat, in vivo, po, 1000 mg/kg, t1/2, male SD rat plasma, single oral 1000 mg/kg (Group 4), one outlier excluded, mean",4.73 h
same,half-life,"[1]; male, Sprague-Dawley, rat, in vivo, po, plasma t1/2, range, 250-1000 mg/kg single oral dose",4.71 to 6.06 h
same,concentration at 2 h,"[1]; male, Sprague-Dawley, rat, plasma, po, 500 mg/kg, Plasma concentration, male SD rat, single oral 500 mg/kg (Group 2), 2 hr, individual rats 453, 454, 455",136 ng/mL
same,concentration at 6 h,"[1]; male, Sprague-Dawley, rat, plasma, po, 500 mg/kg, Plasma concentration, male SD rat, single oral 500 mg/kg (Group 2), 6 hr, individual rats 453, 454, 455",428 ng/mL
same,concentration at 8 h,"[1]; male, Sprague-Dawley, rat, plasma, po, 500 mg/kg, Plasma concentration, male SD rat, single oral 500 mg/kg (Group 2), individual rats 453, 454, 455",561 ng/mL
same,concentration at 6 h,"[1]; male, Sprague-Dawley, rat, plasma, po, 750 mg/kg, Plasma concentration, male SD rat, single oral 750 mg/kg (Group 3), 6 hr, individual rats 456, 457, 458",381 ng/mL
same,concentration at 8 h,"[1]; male, Sprague-Dawley, rat, plasma, po, 750 mg/kg, Plasma concentration, male SD rat, single oral 750 mg/kg (Group 3), individual rats 456, 457, 458",497 ng/mL
same,AUC(0-t),"[1]; male, Sprague-Dawley, rat, plasma, po, 1000 mg/kg, single oral 1000 mg/kg (Group 4), one outlier excluded, individual rats 459, 460, 461",7440 ng·h/mL
same,AUC(0-inf),"[1]; male, Sprague-Dawley, rat, plasma, po, 1000 mg/kg, single oral 1000 mg/kg (Group 4), one outlier excluded, individual rats 459, 460",5880 ng·h/mL
same,Cmax,"[1]; male, Sprague-Dawley, rat, plasma, po, 1000 mg/kg, Cmax, single oral 1000 mg/kg (Group 4), one outlier excluded, individual rats 459, 460, 461",365 ng/mL
same,concentration at 6 h,"[1]; male, Sprague-Dawley, rat, plasma, po, 1000 mg/kg, Plasma concentration, male SD rat, single oral 1000 mg/kg (Group 4), all data included, 6 hr, individual rats 459, 460, 461",365 ng/mL
same,concentration at 4 hr,"[1]; male, Sprague-Dawley, rat, plasma, po, 1000 mg/kg, Plasma concentration, male SD rat, single oral 1000 mg/kg (Group 4), one outlier excluded, 4 hr, mean",381 ng/mL
same,concentration at 6 hr,"[1]; male, Sprague-Dawley, rat, plasma, po, 1000 mg/kg, Plasma concentration, male SD rat, single oral 1000 mg/kg (Group 4), one outlier excluded, 6 hr, individual rats 459, 460, 461",365 ng/mL
same,increase of plasma AUClast,[2],about 2 fold
same,AUClast,"[2]; po, 250 mg/kg",3515 ng·h/mL
same,Tmax,"[2]; po, 250 mg/kg",5.33 h
same,Tmax,"[2]; po, 500 mg/kg",6.67 h
same,Tmax,"[2]; po, 750 mg/kg",6.67 h
same,mean t1/2,[3]; 150 mg dose,15.8 h
same,mean t1/2,[3]; 200 mg dose,26 h
same,Clearance,[3]; in vivo,4 to 10.5 h⁻¹ kg⁻¹
same,time to steady-state plasma levels,[3]; in vivo,4 to 5 days
same,lung concentrations achieved,[4],greater than 30 ug/g
same,Plasma concentration,"[4]; 250 mg/kg, 24 h",34 ng/mL
same,activity in the HeLa-ACE2 cell-based SARS-CoV-2 assay,[5],demonstrated activity
same,primary metabolite,[6],indole glucuronide
same,Kp,[7],~50
same,Tmax,"[7]; 250 mg/kg, Mean Tmax (plasma)",2 to 6 h
same,Tmax,"[7]; 250 mg/kg, Tmax (lung)",4 to 8 h
same,Cmax at 5 day,"[7]; po, 50 mg/kg",178 ± 8 ng/mL
same,MRT last,"[7]; po, 50 mg/kg",6.79 h
same,MRT last at 5 day,"[7]; po, 50 mg/kg",7.35 h
same,Tmax at 5 day,"[7]; po, 50 mg/kg",5 h
same,Cmax at 5 day,"[7]; po, 250 mg/kg",1050 ± 230 ng/mL
same,MRT last,"[7]; po, 250 mg/kg",8.27 h
same,Tmax at 5 day,"[7]; po, 250 mg/kg",6 h
same,activity in HTS,[8],INACTIVE
same,activity in HTS,[9],INACTIVE
